Test results taken from the NIST ThermoML archive (doi:10.1021/je100237h).

Conditions: Liquid; for viscosity: 101.33 kPa, Concentric cylinders viscometry; for mass density: Vibrating tube method

CC(C)COC(=O)CCCCC(=O)OCC(C)C [diisobutyl adipate]
Conditions	viscosity [mPa·s]
283.15 K	8.56
288.15 K	7.22
293.15 K	6.17
298.15 K	5.33
303.15 K	4.65
308.15 K	4.09
313.15 K	3.63
318.15 K	3.24
323.15 K	2.92
328.15 K	2.64
333.15 K	2.4
338.15 K	2.19
343.15 K	2.01
348.15 K	1.85
353.15 K	1.71
358.15 K	1.59
363.15 K	1.48
368.15 K	1.38
373.15 K	1.29

Conditions	mass density [kg/m3]
293.15 K, 100 kPa	951.7
293.15 K, 10000 kPa	958.4
293.15 K, 20000 kPa	964.7
293.15 K, 30000 kPa	970.6
293.15 K, 40000 kPa	976.1
293.15 K, 50000 kPa	981.4
293.15 K, 60000 kPa	986.4
293.15 K, 70000 kPa	991.2
293.15 K, 80000 kPa	995.9
293.15 K, 90000 kPa	1000.3
293.15 K, 100000 kPa	1004.7
293.15 K, 110000 kPa	1008.7
293.15 K, 120000 kPa	1012.7
293.15 K, 130000 kPa	1016.6
293.15 K, 140000 kPa	1020.3
303.15 K, 100 kPa	942.8
303.15 K, 10000 kPa	949.9
303.15 K, 20000 kPa	956.4
303.15 K, 30000 kPa	962.6
303.15 K, 40000 kPa	968.3
303.15 K, 50000 kPa	974
303.15 K, 60000 kPa	979.1
303.15 K, 70000 kPa	984.2
303.15 K, 80000 kPa	989
303.15 K, 90000 kPa	993.4
303.15 K, 100000 kPa	997.8
303.15 K, 110000 kPa	1002.1
303.15 K, 120000 kPa	1006.3
303.15 K, 130000 kPa	1010.3
303.15 K, 140000 kPa	1014
313.15 K, 100 kPa	934.2
313.15 K, 10000 kPa	941.6
313.15 K, 20000 kPa	948.5
313.15 K, 30000 kPa	954.9
313.15 K, 40000 kPa	960.9
313.15 K, 50000 kPa	966.6
313.15 K, 60000 kPa	972.1
313.15 K, 70000 kPa	977.2
313.15 K, 80000 kPa	982
313.15 K, 90000 kPa	986.7
313.15 K, 100000 kPa	991.2
313.15 K, 110000 kPa	995.6
313.15 K, 120000 kPa	999.9
313.15 K, 130000 kPa	1003.9
313.15 K, 140000 kPa	1007.9
323.15 K, 100 kPa	925.6
323.15 K, 10000 kPa	933.4
323.15 K, 20000 kPa	940.5
323.15 K, 30000 kPa	947.3
323.15 K, 40000 kPa	953.7
323.15 K, 50000 kPa	959.7
323.15 K, 60000 kPa	965.2
323.15 K, 70000 kPa	970.6
323.15 K, 80000 kPa	975.6
323.15 K, 90000 kPa	980.5
323.15 K, 100000 kPa	985.3
323.15 K, 110000 kPa	989.8
323.15 K, 120000 kPa	994.2
323.15 K, 130000 kPa	998.3
323.15 K, 140000 kPa	1003
333.15 K, 100 kPa	916.7
333.15 K, 10000 kPa	924.9
333.15 K, 20000 kPa	932.4
333.15 K, 30000 kPa	939.3
333.15 K, 40000 kPa	945.8
333.15 K, 50000 kPa	952
333.15 K, 60000 kPa	957.8
333.15 K, 70000 kPa	963.3
333.15 K, 80000 kPa	968.5
333.15 K, 90000 kPa	973.4
333.15 K, 100000 kPa	978.2
333.15 K, 110000 kPa	982.8
333.15 K, 120000 kPa	987.3
333.15 K, 130000 kPa	991.6
333.15 K, 140000 kPa	995.7
343.15 K, 100 kPa	908.1
343.15 K, 10000 kPa	916.3
343.15 K, 20000 kPa	924.3
343.15 K, 30000 kPa	931.5
343.15 K, 40000 kPa	938.3
343.15 K, 50000 kPa	944.7
343.15 K, 60000 kPa	950.8
343.15 K, 70000 kPa	956.3
343.15 K, 80000 kPa	961.8
343.15 K, 90000 kPa	967
343.15 K, 100000 kPa	971.8
343.15 K, 110000 kPa	976.5
343.15 K, 120000 kPa	981.1
343.15 K, 130000 kPa	985.5
343.15 K, 140000 kPa	989.7
353.15 K, 100 kPa	899.3
353.15 K, 10000 kPa	908
353.15 K, 20000 kPa	916.2
353.15 K, 30000 kPa	923.7
353.15 K, 40000 kPa	930.9
353.15 K, 50000 kPa	937.7
353.15 K, 60000 kPa	943.9
353.15 K, 70000 kPa	950
353.15 K, 80000 kPa	955.5
353.15 K, 90000 kPa	960.8
353.15 K, 100000 kPa	965.7
353.15 K, 110000 kPa	970.5
353.15 K, 120000 kPa	974.9
353.15 K, 130000 kPa	979.5
353.15 K, 140000 kPa	983.7
363.15 K, 100 kPa	890.2
363.15 K, 10000 kPa	899.9
363.15 K, 20000 kPa	908.7
363.15 K, 30000 kPa	916.4
363.15 K, 40000 kPa	923.7
363.15 K, 50000 kPa	930.4
363.15 K, 60000 kPa	936.9
363.15 K, 70000 kPa	943.2
363.15 K, 80000 kPa	948.9
363.15 K, 90000 kPa	954.1
363.15 K, 100000 kPa	959.4
363.15 K, 110000 kPa	964.4
363.15 K, 120000 kPa	969
363.15 K, 130000 kPa	973.7
363.15 K, 140000 kPa	978.1
373.15 K, 100 kPa	882.3
373.15 K, 10000 kPa	891.5
373.15 K, 20000 kPa	900.5
373.15 K, 30000 kPa	908.6
373.15 K, 40000 kPa	916.5
373.15 K, 50000 kPa	923.3
373.15 K, 60000 kPa	930.1
373.15 K, 70000 kPa	936.4
373.15 K, 80000 kPa	942.2
373.15 K, 90000 kPa	947.8
373.15 K, 100000 kPa	953.2
373.15 K, 110000 kPa	958.2
373.15 K, 120000 kPa	963.2
373.15 K, 130000 kPa	967.8
373.15 K, 140000 kPa	972.5
383.15 K, 100 kPa	873.2
383.15 K, 10000 kPa	883.6
383.15 K, 20000 kPa	893.1
383.15 K, 30000 kPa	901.7
383.15 K, 40000 kPa	909.6
383.15 K, 50000 kPa	916.6
383.15 K, 60000 kPa	923.5
383.15 K, 70000 kPa	929.4
383.15 K, 80000 kPa	935.7
383.15 K, 90000 kPa	941.2
383.15 K, 100000 kPa	946.7
383.15 K, 110000 kPa	951.8
383.15 K, 120000 kPa	957
383.15 K, 130000 kPa	961.5
383.15 K, 140000 kPa	966.1
393.15 K, 100 kPa	864.7
393.15 K, 10000 kPa	875.3
393.15 K, 20000 kPa	885.1
393.15 K, 30000 kPa	893.9
393.15 K, 40000 kPa	902.1
393.15 K, 50000 kPa	909.5
393.15 K, 60000 kPa	916.6
393.15 K, 70000 kPa	923.2
393.15 K, 80000 kPa	929.5
393.15 K, 90000 kPa	935.3
393.15 K, 100000 kPa	941.1
393.15 K, 110000 kPa	946.2
393.15 K, 120000 kPa	951.4
393.15 K, 130000 kPa	956.3
393.15 K, 140000 kPa	960.9
403.15 K, 100 kPa	856.8
403.15 K, 10000 kPa	867.3
403.15 K, 20000 kPa	877.3
403.15 K, 30000 kPa	886.5
403.15 K, 40000 kPa	894.8
403.15 K, 50000 kPa	902.7
403.15 K, 60000 kPa	909.9
403.15 K, 70000 kPa	916.6
403.15 K, 80000 kPa	923.3
403.15 K, 90000 kPa	929.4
403.15 K, 100000 kPa	935
403.15 K, 110000 kPa	940.3
403.15 K, 120000 kPa	945.5
403.15 K, 130000 kPa	950.6
403.15 K, 140000 kPa	955.4
